# Laboratory results reported in patent publication US20050255469A1, “Human 5-ht7 receptor promoter sequence” (priority 2002, published 2005).
# Entries after “also recorded” stand apart in the source; their conditions may differ.
# What was measured:
# [1] = target: 5-HT7 receptor (Homo sapiens, UniProt P34969); conditions: cited from earlier work
# [2] = test system: circadian rhythm of hamsters; conditions: cited from earlier work
# [3] = test system: 5-HT7 receptor promoter; assay: transient transfection luciferase reporter assay with 5-HT7 promoter constructs in HEK293T cells, barbiturate treatment; assay type: cell-based, human
# Protocol: HEK293T cells were maintained in Dulbecco's modified Eagle's medium supplemented with 100 units/ml penicillin, 100 μg/ml streptomycin, and 10% newborn calf serum. These cells were maintained at 37° C. in a humidified atmosphere of 5% CO2.
# 10^5 cells/cm^2 in 24-well dishes were transfected with 150 ng promoter plasmid and 50 ng neogal (served as an internal control), using the standard calcium phosphate coprecipitation method. 24 hours after transfection, cells were washed once with PBSA and lysed in 150 μl 100 mM potassium phosphate (pH 7.8), 0.2% Triton X-100. The samples were analyzed for luciferase activity as described previously (Vanden Berghe et al., 1998). β-Galactosidase activity was measured using Galacto Star (Tropix) as substrate. For the barbiturate experiments, treatment with different barbiturates started 24 hours after transfection of the cells
# According to MatInspector, a putative BARBIE (Barbiturate Inducible Element) is present in the promoter region of the 5-HT7 receptor. To investigate the possible influence of barbiturates on 5-HT7 promoter activity, we transiently transfected HEK293T cells with the different promoter constructs and treated the transfected cells with barbiturates for 24 h (FIG. 6a). […] The reduction varied from 30-50% depending on the promoter construct used and the type of barbiturate.
# [4] = test system: GAPDH; assay: RT-PCR analysis of GAPDH mRNA levels in 1321-N1 cells; assay type: cell-based, human; conditions: different concentrations, 24 h
# Protocol: (§1) 132-1N1 human astrocytoma cells were seeded into 58 cm^2 plates; 12 hours after seeding the cells were cultured with either medium alone (−) or medium containing 10 nM, 100 nM, 500 nM, 1 μM, 2 μM or 5 μM Mithramycin A (Serva). Total RNA was isolated using a RNeasy, total RNA isolation kit (Qiagen). cDNA was synthesized using AMV reverse transcriptase (Promega). The cDNA was then amplified by PCR in a total volume of 30 μl containing 10 pmol of each primer, 200 μM dNTP, Taq DNA polymerase buffer, 2,5 units of Taq and 5 μl of cDNA. PCR conditions were 94° C., 30 sec; 56° C., 1 min; 72° C., 2 min; for 35 cycles. PCR products were analyzed by electrophoresis through 6% polyacrylamide gel.
# [5] = test system: 5-HT7 promoter; assay: luciferase reporter assay in NS20Y cells transiently transfected with the F1000 construct, mithramycin A treatment; assay type: cell-based, mouse; conditions: increasing concentrations, 24 h
# Protocol: N2A and NS20Y cells were maintained in Dulbecco's modified Eagle's medium supplemented with 100 units/ml penicillin, 100 μg/ml streptomycin, and 10% foetal calf serum. These cells were maintained at 37° C. in a humidified atmosphere of 5% CO2. 4×10^5 cells in 6 well dishes were transfected with 500-1000 ng promoter construct and 300 ng neogal (served as internal control), using JetPEI a cationic polymer transfection reagent (Qbiogene).
# Cells were treated with different concentrations of Mithramycin A for 24 hours.
# The significance of binding by Sp1 to the 5-HT7 promoter for transcriptional activity was confirmed in experiments with mithramycin A, a compound that interferes with Sp1 binding to GC boxes in DNA.
# [6] = test system: 5-HT7 mRNA; assay: RT-PCR analysis of endogenous 5-HT7 mRNA levels in 1321-N1 cells; assay type: cell-based; conditions: 1321-N1 human astrocytoma cells, different concentrations, 24 h
# Protocol: as §1
# [7] = time course, HEK293T cells, 2000luc+ and 1000luc+, 1.5 mM
# Sequence of 5-HT7 receptor (P34969 whole entry): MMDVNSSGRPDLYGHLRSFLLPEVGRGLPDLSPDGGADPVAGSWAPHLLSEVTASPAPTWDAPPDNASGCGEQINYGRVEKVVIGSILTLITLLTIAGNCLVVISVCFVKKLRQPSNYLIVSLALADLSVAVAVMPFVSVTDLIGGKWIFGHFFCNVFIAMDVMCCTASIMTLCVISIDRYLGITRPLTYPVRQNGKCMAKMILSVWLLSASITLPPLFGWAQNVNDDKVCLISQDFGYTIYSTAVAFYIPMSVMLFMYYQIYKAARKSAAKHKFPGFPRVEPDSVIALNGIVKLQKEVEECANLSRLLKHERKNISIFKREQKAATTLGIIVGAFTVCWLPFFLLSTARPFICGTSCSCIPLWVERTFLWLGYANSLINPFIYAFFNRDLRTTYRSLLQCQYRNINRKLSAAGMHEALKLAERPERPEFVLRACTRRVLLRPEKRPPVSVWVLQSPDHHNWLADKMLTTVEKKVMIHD
molecule,measurement,setting,value
CCCN(CCC)C1CCc2cccc(O)c2C1 (stereo not drawn) [8-OH-DPAT],affinity for the 5-HT7 receptor,[1],high affinity
same,effect on circadian rhythm,[2],shifted the circadian rhythm
CCC1(c2ccccc2)C(=O)NC(=O)NC1=O [Phenobarbital],time at which repressive effect reached a maximum,[3]; [7],16 h
same,time at which repressive effect was already present,[3]; [7],≤ 6 h
mithramycin A,levels of GAPDH,[4],unaffected
same,5-HT7 promoter activity,[5],dose-dependent loss of promoter activity; also recorded: inhibits 5-HT7 promoter activity
same,5-HT7 mRNA levels,[6],significant decrease
CCC1(CCC(C)C)C(=O)NC(=O)NC1=O [Amobarbital],relative potency in repressing promoter activity,"[3]; HEK293T cells, 1,5 mM, 24 h, Amobarbital versus Phenobarbital",somewhat more potent
same,effect on 5-HT7 receptor promoter activity,"[3]; HEK293T cells, transient transfection, 1.5 mM barbiturate, 24 h",repress 5-HT7 receptor promoter activity
